{"source": "paper PMC11234460", "about": "“In Silico Discovery of Stapled Peptide Inhibitor Targeting the Nur77‐PPARγ Interaction and Its Anti‐Breast‐Cancer Efficacy” (Advanced Science, 2024)", "key": {"MCF7 cells": {"system": "MCF7 cells", "test": "Cell viability assay (CCK-8)", "format": "cell-based, human", "conditions": "MCF7, 5 × 10^−6 M, 24 h", "experimental": "MCF7, MDA‐MB‐231, and MDA‐BoM‐1833 cells (5000 cells/well) were seeded in 96‐well plates and cultured overnight at 37°C and 5% CO2. The cells were then treated with fresh basic medium containing various concentrations (1/2/5/10/20 × 10^−6 M) of compounds. After 24 h of incubation, the cells were incubated with a basic medium containing 10% Cell Counting Kit‐8 (Dojindo, CK‐04) for 2 h. Cell viability was evaluated by measuring the absorbance at 450 nm. The formula used was [(As‐Ab)/(Ac‐Ab)] × 100%, where as represents the absorbance of the drug‐treated group, Ac represents the absorbance of the control group treated with medium, and Ab represents the absorbance of the blank control containing only medium."}, "MDA-MB-231 cells [1]": {"system": "MDA-MB-231 cells", "test": "qPCR of CD36 and FABP4", "format": "cell-based", "conditions": "n = 3"}, "Nur77-PPARγ interaction": {"target": "T1, Nur77-PPARγ interaction (Homo sapiens, UniProt P22736)", "T1 construct": "expressed in transfected cells; host or cells: HEK293T", "test": "Co-immunoprecipitation (IP: Nur77; IB: PPARγ, Trim13) in HEK293T cells", "format": "cell-based", "conditions": "1 × 10^−5 M, 24 h", "description": "HEK293T cells were seeded overnight in 10 cm culture dishes and transfected with the Nur77 and PPARγ plasmids for 48 h. After transfection, T‐CY14 and ST‐CY14 were incubated with the cells for 24 h. The cells were then collected and lysed in 500 µL precooled NP40 lysis buffer (Beyotime, P0013F), which contained 20x […] and 50x phosphatase inhibitor. All the samples were prepared at a concentration of 1 mg mL^−1, and 0.5 mg of the sample was subsequently incubated overnight at 4 °C with 2 µg of Nur77 antibody (Proteintech, 12235‐1‐AP). The samples were then incubated with Protein A/G PLUS‐Agarose (Santa Cruz, sc‐2003) for 4 h at 4 °C. The beads were collected through centrifugation and washed five times with NP40 lysis buffer. Finally, 5x loading buffer was added to the buffer containing the beads for Western blot analysis of PPARγ antibody (Proteintech, 16643‐1‐AP), Trim13 antibody (Abcam, ab234847), and β‐actin antibody (epizyme, LF201)."}, "[2]": {"system": "mutated Nur77-EGFP (Gln571, Glu398, Phe598)", "test": "MST with mutated Nur77-EGFP in HEK293T cell lysate", "format": "binding", "conditions": "Nur77 mutated at Gln571, Glu398 and Phe598, Monolith NT.115, 40% MST power", "description": "The MST measure for the affinity of the peptide with purified Nur77 LBD protein was performed by Dianthus (Nano Temper). First, 1 × 10^−5 M protein was labeled with fluorescent dye and incubated with variable concentrations (0.1/0.4/0.8/1.6/3.1/6.3/12.5/25/50/100 × 10^−6 M) of peptides in PBST (containing 0.05% Tween‐20) (v/v, 10 µL: 10 µL). Incubated at room temperature away from light for 20 min, the mixture was loaded into the capillary and scanned. The MST measure for the affinity of the peptide with mutated Nur77‐EGFP was performed by Monolith NT.115 (Nano Temper). The HEK293T cell lysate was collected after transfection with the mutated Nur77‐EGFP plasmid for 48 h. The level of mutated Nur77‐EGFP was verified by the detection of fluorescence intensity. Different concentrations (0.1/0.4/0.8/1.6/3.1/6.3/12.5/25/50/100 × 10^−6 M) of ST‐CY14 were mixed with the cell lysate (v/v, 5 µL:5 µL) and incubated for 20 min. The measurement was carried out at 40% MST power."}, "MDA-MB-231 cells [3]": {"system": "MDA-MB-231 cells", "test": "Scratch (wound-healing) assay", "format": "cell-based", "conditions": "MDA-MB-231, 12 h", "description": "MCF7 and MDA‐MB‐231 cells were seeded in 6‐well plates and cultured overnight. Once the cell density reached 90%, a line was scratched along the center of the 6‐well plate and images were taken randomly in the scratch domain under a microscope. The cells in each well were then treated with peptides of varying concentrations for 12 h, after which images were taken again in the scratch domain. The formula used to calculate the scratch healing rate was as follows: Scratch healing rate (%) = [(Scratch area at 0 h – Scratch area at 12 h) […] Scratch area at 0 h] × 100%."}, "[4]": {"system": "Nur77-knockdown MCF7 and MDA-MB-231 cells", "test": "Cell viability assay (CCK-8), Nur77-knockdown breast tumor cells", "format": "cell-based", "conditions": "Nur77-knockdown MCF7 and MDA-MB-231, 24 h", "description": "Cells were seeded 24 h prior to transfection. Transfection was performed with Transfect‐Mate (GenePharma, G04009) according to the manufacturer's protocols. To transfect siRNA into cells seeded on 6 well cell culture plates, 150 pmol of siRNA was mixed with 8 µL Transfect‐Mate, incubated at room temperature for 15 min, and then added to the cells. The medium was changed to DMEM after 6 h of culture, and the cells were incubated at 37 °C in a 5% CO2 incubator. 48 h later, the siRNA was successfully expressed and could be used for further experiments. The siRNAs used were listed in Table S1 (Supporting Information)."}, "Nur77-LBD": {"target": "T2, Nur77-LBD (Homo sapiens, UniProt P22736)", "T2 construct": "The LBD fragment of human Nur77 (residues 351–598), tagged with an N‐terminal His6‐tag; His6 (N); made in house; host or cells: Escherichia coli BL21(DE3)", "T2 sequence (P22736 351-598)": "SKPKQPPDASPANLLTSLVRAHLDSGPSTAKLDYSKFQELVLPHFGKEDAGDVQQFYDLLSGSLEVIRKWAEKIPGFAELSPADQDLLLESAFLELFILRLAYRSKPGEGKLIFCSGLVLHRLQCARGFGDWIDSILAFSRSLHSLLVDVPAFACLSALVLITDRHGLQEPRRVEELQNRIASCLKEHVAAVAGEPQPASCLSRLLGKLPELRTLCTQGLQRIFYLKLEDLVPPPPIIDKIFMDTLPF", "test": "Surface plasmon resonance (SPR), Biacore T200", "format": "binding", "conditions": "read-out: ka (SPR)", "description": "ST‐CY14 with Nur77‐LBD was detected by SPR using the Biacore T200 system at 25 °C. Recombinant human Nur77‐LBD protein was immobilized on an activated carboxymethylated 5 sensor chip (GE Healthcare) using the amine coupling method. Gradient concentrations of […] were injected at a flow rate of 30 µL min^−1 in a running buffer (1% DMSO in PBS). The results were analyzed with Biacore evaluation software (T200 version 2.0). The data were fitted to the 1:1 Langmuir binding model, and kinetic parameters were derived."}, "MDA-MB-231 cells [5]": {"system": "MDA-MB-231 cells", "test": "Western blot of Nur77, CD36 and FABP4", "format": "cell-based", "description": "MCF7 and MDA‐MB‐231 cells were treated with various concentrations of peptide. The cells were then collected and lysed in NP40 lysis buffer. Total protein was quantified using a BCA assay kit (Beyotime, P0010S). The proteins were separated by SDS‐PAGE and transferred onto a PVDF membrane. The PVDF membrane was blocked in TBST containing 5% non‐fat milk, and then incubated with primary antibodies overnight at 4 °C. Subsequently, membranes were incubated with horseradish peroxidase‐conjugated antirabbit or antimouse IgG secondary antibody for 1 h at room temperature. The membranes were analyzed by a Tanon‐5200 Multi Gel Imaging Analysis System (Tanon) and quantified by ImageJ software."}, "MDA-MB-231 cells [6]": {"system": "MDA-MB-231 cells", "test": "Transwell cell migration analysis", "format": "cell-based", "conditions": "MDA-MB-231, 12 h", "description": "600 µL DMEM complete medium was added to the lower chamber of the Transwell. Next, 2×10^4 cells in 100 µL DMEM medium, containing 1, 2, 5, 10, or 2 × 10^−5 M peptides, were added to the upper chamber of the Transwell. The cells were incubated for 12 h at 37 °C and 5% CO2. After the incubation period, the medium was discarded, and the chamber was washed with PBS. The cells were then fixed with 4% paraformaldehyde for 20 min. The upper chamber was subsequently soaked in crystal violet for 20 min, washed with PBS, and observed under a microscope for analysis."}}, "note": "Where a SMILES comes first, the peptide text is derived from it. Bridges are numbered along the chain shown (N, C = ends). [ ]: non-standard residue; d: D form. S5 = C=CCCC[C@](C)(N)C(=O)O"}
{"smiles": "C[C@@H](O)[C@@H]1NC(=O)[C@H](CCCNC(=N)N)NC(=O)[C@H](CCCNC(=N)N)NC(=O)[C@@](C)(NC(=O)[C@H](Cc2ccccc2)NC(=O)CNC(=O)[C@H](CCCCN)NC(=O)[C@H](CS)NC(=O)CNC(=O)[C@H](CCC(=O)O)NC(=O)[C@@H](N)CS)CCCC=CCCC[C@@](C)(C(=O)N[C@@H](CCCNC(=N)N)C(=O)N[C@@H](Cc2ccc(O)cc2)C(=O)N[C@@H](Cc2ccc(O)cc2)C(=O)NCC(=O)N[C@@H](CCCNC(=N)N)C(=O)N[C@@H](CCCCN)C(=O)N[C@@H](CCCCN)C(=O)N[C@@H](CCCNC(=N)N)C(=O)N[C@@H](CCCNC(=N)N)C(=O)N[C@@H](CCC(N)=O)C(=O)N[C@@H](CCCNC(=N)N)C(=O)N[C@@H](CCCNC(=N)N)C(=O)N[C@@H](CCCNC(=N)N)C(N)=O)NC1=O", "note": "[ST-CY14] (H-CEGCKGF[S5]RRT[S5]RYYGRKKRRQRRR-NH2; staple 8-12)", "values": [{"measurement": "Cell viability / proliferation", "setting": "MCF7 cells", "value": "significantly attenuated breast tumor cell proliferation"}, {"measurement": "CD36 and FABP4 transcription (qPCR)", "setting": "MDA-MB-231 cells [1]", "value": "dose‐dependently inhibited CD36 and FABP4 expression at the transcriptional level"}, {"measurement": "Endogenous Nur77-PPARγ binding (Co-IP)", "setting": "Nur77-PPARγ interaction", "value": "inhibited the binding between Nur77 and PPARγ"}, {"measurement": "Trim13 and ubiquitination of Nur77 (Co-IP)", "setting": "Nur77-PPARγ interaction", "value": "obviously reduced the expression of Trim13 and attenuated the PPARγ‐induced ubiquitination of endogenous Nur77"}, {"measurement": "Interaction with mutated Nur77 (MST)", "setting": "[2]", "value": "disrupted the interaction"}, {"measurement": "Scratch healing", "setting": "MDA-MB-231 cells [3]", "value": "suppressed the scratch healing"}, {"measurement": "Sensitivity of Nur77-knockdown breast tumor cells", "setting": "[4]", "value": "less sensitive to ST‐CY14"}, {"measurement": "kon", "setting": "Nur77-LBD", "value": "1.6e+06", "unit": "M⁻¹ s⁻¹"}, {"measurement": "CD36 and FABP4 protein expression (immunoblot)", "setting": "MDA-MB-231 cells [5]", "value": "inhibited the protein expression of CD36 and FABP4"}, {"measurement": "Nur77 protein expression (immunoblot)", "setting": "MDA-MB-231 cells [5]", "value": "increase in Nur77 expression"}, {"measurement": "Transwell transmigration", "setting": "MDA-MB-231 cells [6]", "value": "inhibited the transmigration"}]}
